Results reported in patent publication US9340590B2 (priority 2011, dated 2016).
Where two headings read alike, the source gives them in different places. Positions of bridges follow the written chain, without caps; N, C: chain ends. Non-standard residues stand in square brackets, D forms with d. Residues, ends and D or L forms follow the SMILES beside them. Lys(Me2) = CN(C)CCCC[C@H](N)C(=O)O

Molecular target: hNav1.7 (Homo sapiens, UniProt Q15858)
Assay: cell-based

Chain of hNav1.7 (Q15858 whole entry, looked up): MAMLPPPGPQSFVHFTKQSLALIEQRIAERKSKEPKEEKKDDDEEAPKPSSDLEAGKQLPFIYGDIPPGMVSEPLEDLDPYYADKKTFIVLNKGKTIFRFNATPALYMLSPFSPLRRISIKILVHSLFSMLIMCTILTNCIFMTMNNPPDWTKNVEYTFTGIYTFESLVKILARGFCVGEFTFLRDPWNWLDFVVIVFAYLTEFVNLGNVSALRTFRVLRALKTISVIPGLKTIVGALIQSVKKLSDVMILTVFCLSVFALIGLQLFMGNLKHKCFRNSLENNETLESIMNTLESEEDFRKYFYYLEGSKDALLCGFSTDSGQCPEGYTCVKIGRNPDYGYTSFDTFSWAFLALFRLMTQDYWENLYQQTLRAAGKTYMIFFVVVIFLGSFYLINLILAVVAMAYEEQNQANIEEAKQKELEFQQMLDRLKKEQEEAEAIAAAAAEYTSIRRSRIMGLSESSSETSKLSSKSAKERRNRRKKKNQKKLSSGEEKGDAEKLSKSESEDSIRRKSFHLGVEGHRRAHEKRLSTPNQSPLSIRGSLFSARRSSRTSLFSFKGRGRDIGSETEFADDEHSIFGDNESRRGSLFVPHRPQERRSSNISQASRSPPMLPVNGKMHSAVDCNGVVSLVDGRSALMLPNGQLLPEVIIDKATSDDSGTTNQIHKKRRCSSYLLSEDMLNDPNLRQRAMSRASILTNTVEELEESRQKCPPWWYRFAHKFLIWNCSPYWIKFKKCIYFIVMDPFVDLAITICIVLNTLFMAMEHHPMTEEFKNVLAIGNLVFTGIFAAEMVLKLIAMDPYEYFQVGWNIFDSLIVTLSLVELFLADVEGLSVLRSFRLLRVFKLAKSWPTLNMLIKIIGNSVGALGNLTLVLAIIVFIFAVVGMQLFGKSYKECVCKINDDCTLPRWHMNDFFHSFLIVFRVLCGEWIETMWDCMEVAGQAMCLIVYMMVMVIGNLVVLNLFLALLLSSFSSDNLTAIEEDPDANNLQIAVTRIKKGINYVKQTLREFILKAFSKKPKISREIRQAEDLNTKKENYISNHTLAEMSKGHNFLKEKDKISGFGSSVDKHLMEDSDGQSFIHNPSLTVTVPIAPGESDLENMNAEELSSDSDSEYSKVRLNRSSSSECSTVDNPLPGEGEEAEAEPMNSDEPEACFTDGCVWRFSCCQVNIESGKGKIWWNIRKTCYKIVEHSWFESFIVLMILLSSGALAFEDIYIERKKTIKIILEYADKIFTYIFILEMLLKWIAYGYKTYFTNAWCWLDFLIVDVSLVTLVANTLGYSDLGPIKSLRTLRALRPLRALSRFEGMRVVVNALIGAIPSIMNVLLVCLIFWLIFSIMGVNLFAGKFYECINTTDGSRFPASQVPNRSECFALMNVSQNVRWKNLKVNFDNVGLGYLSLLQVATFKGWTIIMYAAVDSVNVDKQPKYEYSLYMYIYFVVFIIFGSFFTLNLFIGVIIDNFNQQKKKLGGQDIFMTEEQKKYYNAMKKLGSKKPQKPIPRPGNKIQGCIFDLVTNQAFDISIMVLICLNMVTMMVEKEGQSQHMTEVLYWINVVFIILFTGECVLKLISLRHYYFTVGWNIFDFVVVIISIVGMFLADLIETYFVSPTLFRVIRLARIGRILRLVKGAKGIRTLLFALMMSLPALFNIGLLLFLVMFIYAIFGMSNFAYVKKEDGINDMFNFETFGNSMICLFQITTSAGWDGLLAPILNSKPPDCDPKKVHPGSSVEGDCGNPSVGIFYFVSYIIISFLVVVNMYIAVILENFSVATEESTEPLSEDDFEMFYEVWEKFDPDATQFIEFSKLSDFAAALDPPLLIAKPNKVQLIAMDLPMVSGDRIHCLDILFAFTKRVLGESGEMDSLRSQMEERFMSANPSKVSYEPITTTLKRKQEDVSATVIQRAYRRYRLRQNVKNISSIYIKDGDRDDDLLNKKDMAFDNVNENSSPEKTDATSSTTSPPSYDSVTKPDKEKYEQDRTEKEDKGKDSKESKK

| Structure (SMILES) | IC50 (read-out: Nav1.7 Use IC50) [nM] | IC50 (Nav1.7 Use IC50) [nM] |
| --- | --- | --- |
| CC[C@H](C)[C@@H]1NC(=O)[C@@H]2CSSC[C@@H]3NC(=O)[C@H](C(C)C)NC(=O)[C@H](CC(C)C)NC(=O)[C@H](CC(N)=O)NC(=O)[C@@H]4CCCN4C(=O)[C@H](CCCCN(C)C)NC(=O)[C@H](CSSC[C@H](NC(=O)[C@@H](N)CC(=O)O)C(=O)N[C@@H](CC(C)C)C(=O)NCC(=O)N[C@@H](Cc4ccccc4)C(=O)N[C@@H](CCSC)C(=O)N[C@@H](CCCNC(=N)N)C(=O)N[C@@H](CCCCN)C(=O)N2)NC(=O)[C@H](CSSC[C@@H](C(=O)N[C@@H](CCCCN)C(=O)N[C@@H](Cc2ccc(O)cc2)C(=O)N[C@H](C(=O)N[C@@H](Cc2ccccc2)C(N)=O)C(C)C)NC(=O)[C@H](Cc2c[nH]c4ccccc24)NC(=O)[C@H](CCCCN)NC(=O)[C@H](Cc2c[nH]cn2)NC(=O)[C@H]([C@@H](C)O)NC(=O)[C@H](CCCNC(=N)N)NC(=O)[C@H](CO)NC3=O)NC(=O)[C@H](CCCCN)NC(=O)[C@H](CC(=O)O)NC(=O)[C@H](CC(N)=O)NC(=O)[C@H](CC(=O)O)NC(=O)[C@@H]2CCCN2C1=O [[K(Me2)18]GpTx-1(1-34)] (H-DCLGFMRKCIPDNDKCC[Lys(Me2)]PNLVCSRTHKWCKYVF-NH2; disulfide 2-17, 9-23, 16-30) | 5 |  |
| CC[C@H](C)[C@@H]1NC(=O)[C@@H]2CSSC[C@@H]3NC(=O)[C@H](C(C)C)NC(=O)[C@H](CC(C)C)NC(=O)[C@H](CC(N)=O)NC(=O)[C@@H]4CCCN4C(=O)[C@H](CCCNC(=N)N)NC(=O)[C@H](CSSC[C@H](NC(=O)[C@@H](N)CC(=O)O)C(=O)N[C@@H](CC(C)C)C(=O)NCC(=O)N[C@@H](Cc4ccccc4)C(=O)N[C@@H](CCSC)C(=O)N[C@@H](CCCNC(=N)N)C(=O)N[C@@H](CCCCN)C(=O)N2)NC(=O)[C@H](CSSC[C@@H](C(=O)N[C@@H](CCCCN)C(=O)N[C@@H](Cc2ccc(O)cc2)C(=O)N[C@H](C(=O)N[C@@H](Cc2ccccc2)C(N)=O)C(C)C)NC(=O)[C@H](Cc2c[nH]c4ccccc24)NC(=O)[C@H](CCC(N)=O)NC(=O)[C@H](Cc2c[nH]cn2)NC(=O)[C@H]([C@@H](C)O)NC(=O)[C@H](CCCNC(=N)N)NC(=O)[C@H](CO)NC3=O)NC(=O)[C@H](CCCCN)NC(=O)[C@H](CC(=O)O)NC(=O)[C@H](CC(N)=O)NC(=O)[C@H](CC(=O)O)NC(=O)[C@@H]2CCCN2C1=O [[Gln28]GpTx-1(1-34)] (H-DCLGFMRKCIPDNDKCCRPNLVCSRTHQWCKYVF-NH2; disulfide 2-17, 9-23, 16-30) | 4 |  |
| CSCC[C@@H]1NC(=O)[C@H](Cc2ccccc2)NC(=O)CNC(=O)[C@H](CC(C)C)NC(=O)[C@@H](NC(=O)[C@@H](N)CC(=O)O)CSSC[C@@H]2NC(=O)[C@@H]3CSSC[C@@H](C(=O)N[C@@H](CCCCN)C(=O)N[C@@H](Cc4ccc(O)cc4)C(=O)N[C@H](C(=O)N[C@@H](Cc4ccccc4)C(N)=O)C(C)C)NC(=O)[C@H](Cc4c[nH]c5ccccc45)NC(=O)[C@H](CCCCN)NC(=O)[C@H](Cc4cnc[nH]4)NC(=O)[C@H]([C@@H](C)O)NC(=O)[C@H](CCCNC(=N)N)NC(=O)[C@H](CO)NC(=O)[C@H](CSSC[C@H](NC(=O)[C@H](CCCCN)NC(=O)[C@H](CCCNC(=N)N)NC1=O)C(=O)N[C@@H](CC(N)=O)C(=O)N1CCC[C@H]1C(=O)N[C@@H](CC(=O)O)C(=O)N[C@@H](CC(N)=O)C(=O)N[C@@H](CC(=O)O)C(=O)N[C@@H](CCCCN)C(=O)N3)NC(=O)[C@H](C(C)C)NC(=O)[C@H](CC(C)C)NC(=O)[C@H](CC(N)=O)NC(=O)[C@@H]1CCCN1C(=O)[C@H](CCCNC(=N)N)NC2=O [[Asn10]GpTx-1(1-34)] (H-DCLGFMRKCNPDNDKCCRPNLVCSRTHKWCKYVF-NH2; disulfide 2-17, 9-23, 16-30) |  | 2 |
| CC[C@H](C)[C@@H]1NC(=O)[C@@H]2CSSC[C@@H]3NC(=O)[C@H](C(C)C)NC(=O)[C@H](CC(C)C)NC(=O)[C@H](CC(N)=O)NC(=O)[C@@H]4CCCN4C(=O)[C@H](CCCNC(=N)N)NC(=O)[C@H](CSSC[C@H](NC(=O)[C@@H](N)CC(=O)O)C(=O)N[C@@H](CC(C)C)C(=O)NCC(=O)N[C@@H](C)C(=O)N[C@@H](Cc4ccccc4)C(=O)N[C@@H](CCCNC(=N)N)C(=O)N[C@@H](CCCCN)C(=O)N2)NC(=O)[C@H](CSSC[C@@H](C(=O)N[C@@H](CCCCN)C(=O)N[C@@H](Cc2ccc(O)cc2)C(=O)N[C@H](C(=O)N[C@@H](Cc2ccccc2)C(N)=O)C(C)C)NC(=O)[C@H](Cc2c[nH]c4ccccc24)NC(=O)[C@H](CCCCN)NC(=O)[C@H](Cc2c[nH]cn2)NC(=O)[C@H](CC(C)C)NC(=O)[C@H](CCCNC(=N)N)NC(=O)[C@H](CO)NC3=O)NC(=O)[C@H](CCCCN)NC(=O)[C@H](CC(=O)O)NC(=O)[C@H](CC(N)=O)NC(=O)[C@H](CC(=O)O)NC(=O)[C@@H]2CCCN2C1=O [[Ala5;Phe6;Leu26]GpTx-1(1-34)] (H-DCLGAFRKCIPDNDKCCRPNLVCSRLHKWCKYVF-NH2; disulfide 2-17, 9-23, 16-30) | 4 |  |
| CC[C@H](C)[C@@H]1NC(=O)[C@@H]2CSSC[C@@H]3NC(=O)[C@H](C(C)C)NC(=O)[C@H](CC(C)C)NC(=O)[C@H](CC(N)=O)NC(=O)[C@@H]4CCCN4C(=O)[C@H](CCCNC(=N)N)NC(=O)[C@H](CSSC[C@H](NC(=O)[C@@H](N)CC(=O)O)C(=O)N[C@@H](CC(C)C)C(=O)NCC(=O)N[C@@H](Cc4ccccc4)C(=O)N[C@@H](CCSC)C(=O)N[C@@H](CCCNC(=N)N)C(=O)N[C@@H](CCCCN)C(=O)N2)NC(=O)[C@H](CSSC[C@@H](C(=O)N[C@@H](CCCCN)C(=O)N[C@@H](Cc2ccc(O)cc2)C(=O)N[C@H](C(=O)N[C@@H](Cc2ccccc2)C(N)=O)C(C)C)NC(=O)[C@H](Cc2c[nH]c4ccccc24)NC(=O)[C@H](CCCCN)NC(=O)[C@H](Cc2cnc[nH]2)NC(=O)[C@H]([C@@H](C)O)NC(=O)[C@H](CCCNC(=N)N)NC(=O)[C@H](CO)NC3=O)NC(=O)[C@H](CCCCN)NC(=O)[C@H](CC(=O)O)NC(=O)[C@H](CC(N)=O)NC(=O)[C@H](CC(=O)O)NC(=O)[C@H](CCC(=O)O)NC1=O [[Glu11]GpTx-1(1-34)] (H-DCLGFMRKCIEDNDKCCRPNLVCSRTHKWCKYVF-NH2; disulfide 2-17, 9-23, 16-30) |  | 2 |
| CSCC[C@@H]1NC(=O)[C@H](Cc2ccccc2)NC(=O)CNC(=O)[C@H](CC(C)C)NC(=O)[C@@H](NC(=O)[C@@H](N)CC(=O)O)CSSC[C@@H]2NC(=O)[C@@H]3CSSC[C@@H](C(=O)N[C@@H](CCCCN)C(=O)N[C@@H](Cc4ccc(O)cc4)C(=O)N[C@H](C(=O)N[C@@H](Cc4ccccc4)C(N)=O)C(C)C)NC(=O)[C@H](Cc4c[nH]c5ccccc45)NC(=O)[C@H](CCCCN)NC(=O)[C@H](Cc4cnc[nH]4)NC(=O)[C@H]([C@@H](C)O)NC(=O)[C@H](CCCNC(=N)N)NC(=O)[C@H](CO)NC(=O)[C@H](CSSC[C@H](NC(=O)[C@H](CCCCN)NC(=O)[C@H](CCCNC(=N)N)NC1=O)C(=O)N[C@@H](CC(=O)O)C(=O)N1CCC[C@H]1C(=O)N[C@@H](CC(=O)O)C(=O)N[C@@H](CC(N)=O)C(=O)N[C@@H](CC(=O)O)C(=O)N[C@@H](CCCCN)C(=O)N3)NC(=O)[C@H](C(C)C)NC(=O)[C@H](CC(C)C)NC(=O)[C@H](CC(N)=O)NC(=O)[C@@H]1CCCN1C(=O)[C@H](CCCNC(=N)N)NC2=O [[Asp10]GpTx-1(1-34)] (H-DCLGFMRKCDPDNDKCCRPNLVCSRTHKWCKYVF-NH2; disulfide 2-17, 9-23, 16-30) |  | 3 |
